Assay results published in ChEMBL document CHEMBL1146979, “Structure-activity relationship of thiopyrimidines as mGluR5 antagonists” (Bioorg Med Chem Lett, 2006).

Molecular target: Metabotropic glutamate receptor 3 (Homo sapiens) (UniProt Q14832)
Test: Activity against mGluR3
Conditions: not given; call rule not given here

Row | Activity [µM] | SMILES
1 | > 25 | Fc1ccc(-c2nccc(Sc3ccc(Cl)c(Cl)c3)n2)nc1
2 | > 25 | Cc1cccc(-c2nccc(Sc3ccc(Cl)c(Cl)c3)n2)n1

Molecular target: Metabotropic glutamate receptor 8 (Homo sapiens) (UniProt O00222)
Test: Activity against mGluR8
Conditions: not given

Sequence of Metabotropic glutamate receptor 8 (Homo sapiens) (O00222 whole entry): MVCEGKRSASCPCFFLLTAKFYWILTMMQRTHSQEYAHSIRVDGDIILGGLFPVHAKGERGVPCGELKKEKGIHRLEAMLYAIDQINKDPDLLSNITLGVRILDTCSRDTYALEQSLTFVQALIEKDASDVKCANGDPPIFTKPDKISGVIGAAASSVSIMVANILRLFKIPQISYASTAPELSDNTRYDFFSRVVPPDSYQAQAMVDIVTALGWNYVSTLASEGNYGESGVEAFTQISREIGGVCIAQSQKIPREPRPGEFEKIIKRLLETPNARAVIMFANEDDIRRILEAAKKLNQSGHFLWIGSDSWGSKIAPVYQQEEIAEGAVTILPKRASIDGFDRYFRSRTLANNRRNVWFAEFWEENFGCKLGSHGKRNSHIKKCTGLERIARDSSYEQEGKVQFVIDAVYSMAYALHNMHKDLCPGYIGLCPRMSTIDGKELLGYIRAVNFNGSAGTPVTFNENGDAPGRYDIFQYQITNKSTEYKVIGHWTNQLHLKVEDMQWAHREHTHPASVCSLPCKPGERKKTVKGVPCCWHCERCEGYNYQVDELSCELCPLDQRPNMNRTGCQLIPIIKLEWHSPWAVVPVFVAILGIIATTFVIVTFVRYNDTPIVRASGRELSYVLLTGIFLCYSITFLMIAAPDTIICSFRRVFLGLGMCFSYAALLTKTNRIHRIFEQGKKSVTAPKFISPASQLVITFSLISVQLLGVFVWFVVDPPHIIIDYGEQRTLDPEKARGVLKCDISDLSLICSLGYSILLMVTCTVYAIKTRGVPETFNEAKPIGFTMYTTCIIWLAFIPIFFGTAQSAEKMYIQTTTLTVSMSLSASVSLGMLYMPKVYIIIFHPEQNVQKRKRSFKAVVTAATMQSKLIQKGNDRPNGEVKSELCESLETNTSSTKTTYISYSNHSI

Row | Activity [µM] | SMILES
3 | > 25 | Fc1ccc(-c2nccc(Sc3ccc(Cl)c(Cl)c3)n2)nc1
4 | > 25 | Cc1cccc(-c2nccc(Sc3ccc(Cl)c(Cl)c3)n2)n1

System: not listed separately
Test: Clearance in rat liver microsomes
Type: ADME, Microsome
Conditions: not given

Row | microsomal CLint [µL/min/mg] | SMILES
5 | 90 | Fc1ccc(-c2nccc(Sc3ccc(Cl)c(Cl)c3)n2)nc1
6 | 120 | Clc1ccc(Sc2ccnc(-c3ccccn3)n2)cc1Cl

Molecular target: Metabotropic glutamate receptor 7 (Homo sapiens) (UniProt Q14831)
Test: Activity against mGluR7
Conditions: not given

Sequence of Metabotropic glutamate receptor 7 (Homo sapiens) (Q14831 whole entry): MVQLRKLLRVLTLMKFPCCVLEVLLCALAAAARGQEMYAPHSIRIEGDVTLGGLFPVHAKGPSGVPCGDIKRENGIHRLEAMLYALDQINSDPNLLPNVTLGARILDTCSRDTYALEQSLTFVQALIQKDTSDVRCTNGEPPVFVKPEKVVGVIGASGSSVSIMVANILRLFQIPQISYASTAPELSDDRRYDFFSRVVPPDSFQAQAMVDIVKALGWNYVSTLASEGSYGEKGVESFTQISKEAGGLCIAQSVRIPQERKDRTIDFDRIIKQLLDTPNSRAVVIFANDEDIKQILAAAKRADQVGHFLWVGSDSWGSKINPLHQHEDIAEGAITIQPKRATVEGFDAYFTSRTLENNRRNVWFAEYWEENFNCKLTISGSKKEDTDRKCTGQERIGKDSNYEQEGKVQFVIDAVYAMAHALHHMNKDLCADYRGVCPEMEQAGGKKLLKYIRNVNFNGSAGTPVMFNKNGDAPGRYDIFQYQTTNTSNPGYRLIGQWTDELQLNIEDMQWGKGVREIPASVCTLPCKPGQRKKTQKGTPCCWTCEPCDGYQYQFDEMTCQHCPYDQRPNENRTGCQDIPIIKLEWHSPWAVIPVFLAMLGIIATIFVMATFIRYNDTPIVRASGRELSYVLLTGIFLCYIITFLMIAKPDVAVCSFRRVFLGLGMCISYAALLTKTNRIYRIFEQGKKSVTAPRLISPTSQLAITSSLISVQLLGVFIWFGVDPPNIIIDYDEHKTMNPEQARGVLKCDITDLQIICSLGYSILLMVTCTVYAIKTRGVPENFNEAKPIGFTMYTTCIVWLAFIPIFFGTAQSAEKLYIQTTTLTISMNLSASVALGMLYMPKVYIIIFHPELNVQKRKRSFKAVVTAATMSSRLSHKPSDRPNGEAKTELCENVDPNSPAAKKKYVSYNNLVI

Row | Activity [µM] | SMILES
7 | > 25 | Fc1ccc(-c2nccc(Sc3ccc(Cl)c(Cl)c3)n2)nc1
8 | > 25 | Cc1cccc(-c2nccc(Sc3ccc(Cl)c(Cl)c3)n2)n1

Molecular target: Metabotropic glutamate receptor 4 (Homo sapiens) (UniProt Q14833)
Test: Activity against mGluR4
Conditions: not given

Row | Activity [µM] | SMILES
9 | > 25 | Fc1ccc(-c2nccc(Sc3ccc(Cl)c(Cl)c3)n2)nc1
10 | > 25 | Cc1cccc(-c2nccc(Sc3ccc(Cl)c(Cl)c3)n2)n1

Molecular target: Metabotropic glutamate receptor 2 (Homo sapiens) (UniProt Q14416)
Test: Activity against mGluR2
Conditions: not given

Sequence of Metabotropic glutamate receptor 2 (Homo sapiens) (Q14416 19-872 limits assumed): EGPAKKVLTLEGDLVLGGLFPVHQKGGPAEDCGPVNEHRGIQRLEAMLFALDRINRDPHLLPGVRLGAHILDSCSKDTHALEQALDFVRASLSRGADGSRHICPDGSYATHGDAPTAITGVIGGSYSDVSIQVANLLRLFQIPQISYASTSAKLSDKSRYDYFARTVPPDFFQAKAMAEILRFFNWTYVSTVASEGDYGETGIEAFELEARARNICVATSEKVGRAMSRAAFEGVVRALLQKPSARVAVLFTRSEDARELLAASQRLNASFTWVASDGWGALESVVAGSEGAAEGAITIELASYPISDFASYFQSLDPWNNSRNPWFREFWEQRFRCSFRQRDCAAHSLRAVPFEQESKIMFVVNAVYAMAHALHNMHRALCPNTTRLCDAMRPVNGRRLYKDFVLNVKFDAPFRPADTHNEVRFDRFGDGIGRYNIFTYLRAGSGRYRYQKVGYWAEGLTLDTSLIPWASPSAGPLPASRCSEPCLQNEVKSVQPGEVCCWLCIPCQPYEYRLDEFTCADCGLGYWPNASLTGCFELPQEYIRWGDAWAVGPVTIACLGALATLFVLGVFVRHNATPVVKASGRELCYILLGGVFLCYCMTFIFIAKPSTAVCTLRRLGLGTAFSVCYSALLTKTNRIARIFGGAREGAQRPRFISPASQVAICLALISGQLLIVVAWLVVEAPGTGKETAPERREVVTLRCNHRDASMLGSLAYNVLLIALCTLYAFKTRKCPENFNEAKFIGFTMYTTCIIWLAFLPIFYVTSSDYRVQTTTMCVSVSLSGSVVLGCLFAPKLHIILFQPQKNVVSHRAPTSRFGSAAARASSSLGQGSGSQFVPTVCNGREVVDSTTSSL

Row | Activity [µM] | SMILES
11 | > 25 | Fc1ccc(-c2nccc(Sc3ccc(Cl)c(Cl)c3)n2)nc1
12 | > 25 | Cc1cccc(-c2nccc(Sc3ccc(Cl)c(Cl)c3)n2)n1

Molecular target: Metabotropic glutamate receptor 1 (Homo sapiens) (UniProt Q13255)
Test: Activity against mGluR1
Conditions: not given

Row | Activity [µM] | SMILES
13 | > 25 | Fc1ccc(-c2nccc(Sc3ccc(Cl)c(Cl)c3)n2)nc1
14 | > 25 | Cc1cccc(-c2nccc(Sc3ccc(Cl)c(Cl)c3)n2)n1

Molecular target: Metabotropic glutamate receptor 6 (Homo sapiens) (UniProt O15303)
Test: Activity against mGluR6
Conditions: not given

Sequence of Metabotropic glutamate receptor 6 (Homo sapiens) (O15303 whole entry): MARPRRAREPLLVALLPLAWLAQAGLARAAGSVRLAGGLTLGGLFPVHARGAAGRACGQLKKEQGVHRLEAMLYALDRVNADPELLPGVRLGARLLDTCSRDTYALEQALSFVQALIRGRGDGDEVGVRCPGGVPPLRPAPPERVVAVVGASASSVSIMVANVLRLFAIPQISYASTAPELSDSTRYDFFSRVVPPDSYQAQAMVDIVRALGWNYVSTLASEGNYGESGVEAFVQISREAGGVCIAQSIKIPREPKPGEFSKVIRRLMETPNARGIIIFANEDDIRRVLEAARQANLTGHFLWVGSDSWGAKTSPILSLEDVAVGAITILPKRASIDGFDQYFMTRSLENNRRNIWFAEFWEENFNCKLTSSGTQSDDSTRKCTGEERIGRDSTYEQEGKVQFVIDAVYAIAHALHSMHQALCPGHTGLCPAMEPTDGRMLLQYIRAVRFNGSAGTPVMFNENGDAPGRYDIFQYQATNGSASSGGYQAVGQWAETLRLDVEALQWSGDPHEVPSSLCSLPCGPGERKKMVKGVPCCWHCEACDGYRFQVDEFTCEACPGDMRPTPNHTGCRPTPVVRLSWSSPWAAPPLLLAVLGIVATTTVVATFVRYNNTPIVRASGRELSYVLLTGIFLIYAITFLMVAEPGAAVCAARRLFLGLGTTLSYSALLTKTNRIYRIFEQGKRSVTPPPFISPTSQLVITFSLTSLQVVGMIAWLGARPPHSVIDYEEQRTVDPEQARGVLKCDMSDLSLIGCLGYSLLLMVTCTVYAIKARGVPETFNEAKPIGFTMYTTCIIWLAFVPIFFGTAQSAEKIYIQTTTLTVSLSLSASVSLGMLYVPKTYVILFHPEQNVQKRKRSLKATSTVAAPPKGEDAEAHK

Row | Activity [µM] | SMILES
15 | > 25 | Fc1ccc(-c2nccc(Sc3ccc(Cl)c(Cl)c3)n2)nc1
16 | > 25 | Cc1cccc(-c2nccc(Sc3ccc(Cl)c(Cl)c3)n2)n1

System: not listed separately
Test: Clearance in human liver microsomes
Type: ADME, Microsome
Conditions: not given

Row | microsomal CLint [µL/min/mg] | SMILES
17 | 140 | Fc1ccc(-c2nccc(Sc3ccc(Cl)c(Cl)c3)n2)nc1
18 | 90 | Clc1ccc(Sc2ccnc(-c3ccccn3)n2)cc1Cl

Molecular target: Metabotropic glutamate receptor 5 (Homo sapiens, UniProt P41594)
Test: Inhibition of glutamate-induced calcium influx in human mGluR5d by FLIPR
Type: functional
Conditions: not given

Sequence of Metabotropic glutamate receptor 5 (P41594 whole entry): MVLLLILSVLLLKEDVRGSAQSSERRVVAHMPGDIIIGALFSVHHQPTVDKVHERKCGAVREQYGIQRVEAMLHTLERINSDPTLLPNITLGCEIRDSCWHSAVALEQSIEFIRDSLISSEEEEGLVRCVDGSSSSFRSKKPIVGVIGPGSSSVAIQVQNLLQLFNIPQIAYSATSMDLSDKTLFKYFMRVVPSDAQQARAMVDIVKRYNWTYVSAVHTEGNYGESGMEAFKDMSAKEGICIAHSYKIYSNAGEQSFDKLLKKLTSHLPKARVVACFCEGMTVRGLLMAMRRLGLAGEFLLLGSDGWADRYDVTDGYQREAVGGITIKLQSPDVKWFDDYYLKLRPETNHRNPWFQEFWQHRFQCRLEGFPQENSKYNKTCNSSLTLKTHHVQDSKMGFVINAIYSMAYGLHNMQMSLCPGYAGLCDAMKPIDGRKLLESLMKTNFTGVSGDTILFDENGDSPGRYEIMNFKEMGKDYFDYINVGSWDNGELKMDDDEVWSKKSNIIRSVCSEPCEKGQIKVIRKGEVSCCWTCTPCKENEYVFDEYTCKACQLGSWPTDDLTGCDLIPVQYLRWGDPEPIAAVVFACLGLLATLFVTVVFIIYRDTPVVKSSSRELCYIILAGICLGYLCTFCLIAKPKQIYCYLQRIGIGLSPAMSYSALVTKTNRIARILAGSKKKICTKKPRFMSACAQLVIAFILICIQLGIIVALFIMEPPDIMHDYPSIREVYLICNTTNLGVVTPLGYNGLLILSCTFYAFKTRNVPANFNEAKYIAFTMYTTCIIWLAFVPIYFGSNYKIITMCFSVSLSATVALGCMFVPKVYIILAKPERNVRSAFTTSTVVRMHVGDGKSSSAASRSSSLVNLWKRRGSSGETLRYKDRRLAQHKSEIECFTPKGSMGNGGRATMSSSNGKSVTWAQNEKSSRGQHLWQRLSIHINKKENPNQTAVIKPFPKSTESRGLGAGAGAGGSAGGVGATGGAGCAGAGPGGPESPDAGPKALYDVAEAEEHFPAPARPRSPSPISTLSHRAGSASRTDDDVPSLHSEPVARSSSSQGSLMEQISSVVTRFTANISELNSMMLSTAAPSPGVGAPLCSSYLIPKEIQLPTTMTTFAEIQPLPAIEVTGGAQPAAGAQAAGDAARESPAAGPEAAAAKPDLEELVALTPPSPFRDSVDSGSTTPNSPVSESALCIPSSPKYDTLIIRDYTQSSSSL

Row | IC50 | SMILES
19 | Not Active | Clc1ccc(Sc2nccc(-c3ccccn3)n2)cc1Cl
20 | Not Active | Clc1ccc(-c2ccnc(-c3ccccn3)n2)cc1Cl
21 | Not Active | Clc1ccc(Sc2cccc(-c3ccccn3)n2)cc1Cl

Same assay, conditions: read-out: IC50

Row | IC50 [nM] | SMILES
22 | 80 | Fc1ccc(-c2nccc(Sc3ccc(Cl)c(Cl)c3)n2)nc1
23 | > 3000 | OC(c1ccc(Cl)cc1)c1ccnc(-c2ccccn2)n1 (stereo not given)
24 | 1250 | Cc1cc(Sc2ccc(Cl)cc2)nc(-c2ccccn2)n1
25 | > 10000 | Clc1ccc(Sc2ccnc(-c3ccncc3)n2)cc1
26 | 90 | Clc1ccc(Sc2ccnc(-c3ccccn3)n2)cc1Cl
27 | 2370 | Clc1ccc(Sc2ccnc(-c3ccccn3)c2)cc1Cl
28 | 620 | Clc1cccc(Sc2ccnc(-c3ccccn3)n2)c1
29 | 2860 | Brc1cccc(Sc2ccnc(-c3ccccn3)n2)c1
30 | > 10000 | Clc1ccc(Sc2ccnc(-c3cccnc3)n2)cc1

More lines, now with the values behind:

Row | SMILES | IC50 [nM]
31 | FC(F)(F)c1ccc(Sc2ccnc(-c3ccccn3)n2)cc1 | 210
32 | Clc1ccc(Oc2ccnc(-c3ccccn3)n2)cc1 | > 10000
33 | Cc1cccc(-c2nccc(Sc3ccc(Cl)c(Cl)c3)n2)n1 | 390
34 | Clc1ccc(Sc2ccnc(-c3ccccn3)n2)cc1 | 320
35 | Fc1ccc(Sc2ccnc(-c3ccccn3)n2)cc1F | 1520
36 | Cc1cccc(Sc2ccnc(-c3ccccn3)n2)c1 | 2300
37 | Clc1ccc(Cc2ccnc(-c3ccccn3)n2)cc1 | > 10000
38 | Clc1ccc(Nc2ccnc(-c3ccccn3)n2)cc1 | > 10000
39 | FC(F)(F)c1cccc(Sc2ccnc(-c3ccccn3)n2)c1 | 550
40 | CC(=O)N(c1ccc(Cl)cc1)c1ccnc(-c2ccccn2)n1 | > 10000
